Patent US6380134B1, “N-pyridyl herbicide compounds” (Syngenta Crop Protection, Inc., priority 1998, dated 2002)

What was measured:
Assay type in all cases: in vivo
Design in all cases: key: 1=complete damage; 9=no effect; Score figures of 1 to 4 (in particular 1 to 3) signify a good to very good herbicidal action
Setaria [1] = assay: Herbicidal action before plant emergence (pre-emergence action); conditions: 2000 g a.i./ha sprayed immediately after sowing; evaluated after 3 weeks; nine-level key (1=complete damage, 9=no effect)
Text: (§1) Monocotyledonous and dicotyledonous test plants are sown in standard soil in plastic pots. Immediately after sowing, the test substances are sprayed on as aqueous suspensions (prepared from a 25% strength wettable powder (Example F3, b) in accordance with WO 97/34485) or as emulsions (prepared from a 25% strength emulsion concentrate (Example F1, c) in accordance with WO 97/34485), corresponding to a dosage of 2 kg of a.i./ha (500 l of water/ha). The test plants are subsequently grown in the greenhouse under optimal conditions. After a test period of 3 weeks, the experiment is evaluated using a nine-level key (1=complete damage, 9=no effect). Score figures of 1 to 4 (in particular 1 to 3) signify a good to very good herbicidal action.
(§2) Test plants: Lolium, Setaria, Sinapis, Solanum, Stellaria, Ipomea.

Solanum [2] = assay: as above; conditions: 2000 g a.i./ha sprayed immediately after sowing; evaluated after 3 weeks; nine-level key (1=complete damage, 9=no effect)
Text: as §1, §2

Ipomoea [3] = assay: Post-emergence herbicidal action; conditions: dose 2000 g a.i./ha; sprayed at 4- to 6-leaf stage; evaluated after approximately 18 days; nine-level key (1=complete damage, 9=no effect)
Procedure: (§3) Monocotyledonous and dicotyledonous test plants are grown in the greenhouse in plastic pots containing standard soil and, in the 4- to 6-leaf stage, sprayed with an aqueous suspension of the test substances of the formula I, prepared from a 25% strength wettable powder (Example F3, b) in accordance with WO 97/34485) or with an emulsion of the test substances of the formula I, prepared from a 25% strength emulsion concentrate (Example F1, c) in accordance with WO 97/34485), corresponding to a dosage of 2 kg/ a.i./ha (500 l of water/ha). The test plants are subsequently grown on in the greenhouse under optimal conditions. After a test period of approximately 18 days, the experiment is evaluated using a nine-level key (1=complete damage, 9=no effect). Score figures of 1 to 4 (in particular 1 to 3) signify a good to very good herbicidal action.
as §2

Sinapis [4] = assay: Post-emergence herbicidal action; conditions: dose 2000 g a.i./ha; sprayed at 4- to 6-leaf stage; evaluated after approximately 18 days; nine-level key (1=complete damage, 9=no effect)
Procedure: as §3, §2

Solanum [5] = assay: Post-emergence herbicidal action; conditions: dose 2000 g a.i./ha; sprayed at 4- to 6-leaf stage; evaluated after approximately 18 days; nine-level key (1=complete damage, 9=no effect)
Procedure: as §3, §2

Ipomoea [6] = assay: Herbicidal action before plant emergence (pre-emergence action); conditions: 2000 g a.i./ha sprayed immediately after sowing; evaluated after 3 weeks; nine-level key (1=complete damage, 9=no effect)
Text: as §1, §2

Lolium [7] = assay: as above; conditions: 2000 g a.i./ha sprayed immediately after sowing; evaluated after 3 weeks; nine-level key (1=complete damage, 9=no effect)
Text: as §1, §2

Sinapis [8] = assay: as above; conditions: 2000 g a.i./ha sprayed immediately after sowing; evaluated after 3 weeks; nine-level key (1=complete damage, 9=no effect)
Text: as §1, §2

Stellaria [9] = assay: as above; conditions: 2000 g a.i./ha sprayed immediately after sowing; evaluated after 3 weeks; nine-level key (1=complete damage, 9=no effect)
Text: as §1, §2

Lolium [10] = assay: Post-emergence herbicidal action; conditions: dose 2000 g a.i./ha; sprayed at 4- to 6-leaf stage; evaluated after approximately 18 days; nine-level key (1=complete damage, 9=no effect)
Procedure: as §3, §2

Setaria [11] = assay: Post-emergence herbicidal action; conditions: dose 2000 g a.i./ha; sprayed at 4- to 6-leaf stage; evaluated after approximately 18 days; nine-level key (1=complete damage, 9=no effect)
Procedure: as §3, §2

Stellaria [12] = assay: Post-emergence herbicidal action; conditions: dose 2000 g a.i./ha; sprayed at 4- to 6-leaf stage; evaluated after approximately 18 days; nine-level key (1=complete damage, 9=no effect)
Procedure: as §3, §2

SMILES	Pre-emergence action, score, test plant Setaria (Setaria [1])	Pre-emergence action, score, test plant Solanum (Solanum [2])	Post-emergence action, score, Ipomoea (Ipomoea [3])	Post-emergence action, score, Sinapis (Sinapis [4])	Post-emergence action, score, Solanum (Solanum [5])	Pre-emergence action, score, test plant Ipomoea (Ipomoea [6])	Pre-emergence action, score, test plant Lolium (Lolium [7])	Pre-emergence action, score, test plant Sinapis (Sinapis [8])	Pre-emergence action, score, test plant Stellaria (Stellaria [9])	Post-emergence action, score, Lolium (Lolium [10])	Post-emergence action, score, Setaria (Setaria [11])	Post-emergence action, score, Stellaria (Stellaria [12])
CSC(=O)COc1cc(F)c(-n2c(=O)cc(C(F)(F)F)n(C)c2=O)nc1Cl [500.033]	2	1	1	1	1							
CCOC(=O)COc1nc(-n2c(=O)cc(C(F)(F)F)n(C)c2=O)c(F)cc1Cl [1.047]	1	1	1	1	1	1	5	1	7	3	1	4
Cn1c(C(F)(F)F)cc(=O)n(-c2nc(Cl)c(Cl)cc2F)c1=O [1.396]	1	1	1	1	1	1	1	1	1	3	3	3
CCOc1cc(F)c(-n2c(=O)cc(C(F)(F)F)n(C)c2=O)nc1Cl [500.004]			3	2	1							
Cn1c(C(F)(F)F)cc(=O)n(-c2nc(OCC(N)=O)c(Cl)cc2F)c1=O [1.366]	1	1	1	1	1	1	3	1	3	1	1	1
COC(=O)C(Oc1cc(Cl)c(-n2c(=O)cc(C(F)(F)F)n(C)c2=O)nc1Cl)c1ccccc1 (centres unmarked) [500.144]	2	1										
CCCOc1nc(-n2c(=O)cc(C(F)(F)F)n(C)c2=O)c(F)cc1Cl [1.367]	1	1	1	1	1	1	1	1	1	1	1	1
Cn1c(C(F)(F)F)cc(=O)n(-c2nc(OCC(F)(F)F)c(Cl)cc2F)c1=O [1.365]	1	1	1	1	1	1	1	1	1	1	1	1
Cn1c(C(F)(F)F)cc(=O)n(-c2nc(OCc3ccccc3)c(Cl)cc2F)c1=O [1.026]	1	1	1	1	1	1	1	1	3	3	3	3
Cn1c(C(F)(F)F)cc(=O)n(-c2nc(OCC#N)c(Cl)cc2F)c1=O [1.363]	1	1	1	1	1	7	3	2	1	1	1	1
C=CCOc1cc(F)c(-n2c(=O)cc(C(F)(F)F)n(C)c2=O)nc1Cl [500.007]	4	1										
COC(=O)C(C)Oc1nc(-n2c(=O)cc(C(F)(F)F)n(C)c2=O)c(F)cc1Cl (centres unmarked) [1.048]	1	1	1	1	1	1	1	1	1	1	1	1
COC(=O)C(C)Oc1cc(F)c(-n2c(=O)cc(C(F)(F)F)n(C)c2=O)nc1Cl (centres unmarked) [500.029]	4	1	1	1	1							
